Reference: patent EP3949771B1, “HEAT-NOT-BURN SMOKING ARTICLE, METHOD FOR USING SAME, AND HEAT-NOT-BURN SMOKING SYSTEM” (Japan Tobacco Inc., priority 2019, dated 2020)

How the values were obtained:
[1] = First acid dissociation constant of the added acid; type: physicochemical; conditions: in water at 25°C
Protocol: The organic acid preferably has a first acid dissociation constant of preferably 4.0 to 5.0, more preferably 4.1 to 4.8, and further preferably 4.2 to 4.5. […] In the present invention, the term "first acid dissociation constant" indicates an acid dissociation constant in water at 25°C and is a value measured, for example, by acid-base titration, absorption spectroscopy, or capillary electrophoresis.

[2] = Evaluation of solubility of acids in glycerol (visual); type: physicochemical; conditions: for Solubility (-): 10 mg of acid in 1,000 mg of glycerol at 25°C, visual, 5 grades
Protocol: The organic acid is preferably soluble in the aerosol former at 25°C. […] When the resulting solution is colorless and transparent or the majority of the organic acid added is invisible due to dissolution, the organic acid is determined as "soluble." Since a solution of a polyol, such as glycerol, is difficult to measure at room temperature due to the high viscosity, it is desirable to observe the solution after appropriately dissolving once at a high temperature, followed by cooling to room temperature.
The evaluation was made by 5 grades from 1 of "no dissolution" to 5 of "complete dissolution." Herein, a grade of 3 or higher was regarded as "soluble."

SMILES	First acid dissociation constant (-) [1]	Solubility (-) [2]	Solubility in glycerol as an aerosol former (in words) ([2]; 25°C)
CC(=O)C(=O)O [Pyruvic acid]	2.50	5	–
O=C(O)CCCCC(=O)O [Adipic acid]	4.42	–	–
CC(=O)CCC(=O)O [Levulinic acid]	4.44	5	soluble
CCCCCCCCCCCCCCCCCCC(=O)O [Nonadecanoic acid]	5.10	1	–
